From patent US5932217A, “Peptides which inhibit adhesion between leukocytes and endothelial cells” (priority 1994, dated 1999)

Experiments:
THP-1 cells = assay: Generation of Factor Xa by monocytes; assay type: cell-based; conditions: peptides 0.5 mM
Method: Factor Xa generation was determined by a modification of the method of Miletich et al. (1978), J. Biol. Chem. 253: 6908-6916. THP-1 cells (ATCC; 3×10^7 /ml) resuspended in RPMI 1640 (Bio Whittaker, Walkersville, Md.) were incubated with 100 μM ADP (Sigma), 2.5 mM CaCl2, 1 or 5 μg/ml Factor X (Hematologic Technologies Inc.) and 0.5 mM peptides at room temperature. After 20 minutes, 100 μl of the reaction mixture was transferred to 37° C. and supplemented with 100 μl of bovine factor VII- and Factor X-deficient plasma (Sigma). Coagulation was initiated by adding 100 μl of 25 mM CaCl2 and the clotting time was determined. Factor Xa procoagulant activity (ng/ml) was calculated by means of a standard curve constructed by serial concentrations of Factor Xa (Hematologic Technologies Inc.) from 50 to 250 ng/ml.

[1] = tested on: human umbilical vein endothelial cells; assay: Transendothelial migration of neutrophils; assay type: cell-based; conditions: peptides 0.01 mM
Method: Transendothelial migration of neutrophils was studied based on a method described by Muller et al. (1992), J. Exp. Med. 176: 819-828. Briefly, human neutrophils suspended in ice-cold Hanks balanced salt solution (HBSS) containing Ca^++ and Mg^++ (Sigma) were fluoresceinated by adding 3.3 μl/ml 5-(and 6-)carboxyfluorescein diacetate, succinimidyl ester (CFSE, Molecular Probes Inc., Oreg.). After incubation for 30 mins. on ice, neutrophils were washed twice in cold HBSS with Ca^++ and Mg^++ and resuspended in cold Medium 199 (M199, Sigma) to a final concentration of 10^6 /ml. Human umbilical vein endothelial cells were subcultured at confluence into 96-well tissue culture plates (Becton Dickinson Labware, Lincoln Park, N.J.) that were coated with hydrated collagen gel (Vitrogen; Collagen Corporation, Palo Alto, Calif.) and fibronectin. Endothelial cells were stimulated with 10 ng/ml TNF-alpha for 4 hours and washed three times with warm M199. Neutrophils (10^6 /ml) were preincubated with 0.01 mM of peptides or with 1 μM of native FHA in M199 for 5 mins. on ice before they were added in 100 μl aliquots to the endothelial cells. For positive control, neutrophils were pre-incubated with 25 μg/ml anti-CD18 mAb IB4. For negative control, neutrophils were treated with 25 μg/ml mAb W6/32 against HLA class I antigen (Dako, Carpinteria, Calif.). The cells were incubated for 1 hour at 37° C., 5% CO2. To terminate transmigration, the supernatant fluid was aspirated and the wells were filled with warm 1 mM EGTA (Sigma) in HBSS without Ca and Mg. The plates were covered with plate sealers (Dynatech, Alexandria, Va.) and centrifuged in an inverted position at 250 g for 3 mins. at room temperature. To remove residual non-transmigrated neutrophils from the endothelial cells, monolayers were washed twice with 200 μl of warm Hanks solution without Ca and Mg. Fluorescence was quantitated using a fluorescence counter (Millipore Cytofluor™ 2300). The percentage of transmigrated neutrophils was determined by comparing the amount of fluorescence of test wells with that measured in collagen- and fibronectin-coated wells without endothelial cells. […] Percent inhibition of transendothelial migration of neutrophils was calculated by comparing the number of transmigrated cells in wells containing neutrophils treated with peptide to neutrophils treated with M199 alone and arbitrarily set at 100% transendothelial migration (TEM).
The procedures for determining the neutrophil adherence to cultured endothelial cells and the transendothelial migration of neutrophils were identical with those of Example 9. Control values were the same as those shown in Example 9.

Human neutrophils = assay: Binding of 125I-Factor X to neutrophils
Method: Human Factor X (Sigma or Hematologic Technologies Inc.) was labeled with ^125 I using Iodogen (Pierce Chemical Co.) Human neutrophils were isolated from heparinized blood according to the manufacturer's specification using Neutrophil Isolation Medium (Cardinal Associates, Santa Fe, N.M.) and washed three times with 5 mM EDTA-phosphate-buffered saline (PBS), pH 7.2, at 4° C. To eliminate platelet contamination,neutrophils were incubated with autologous serum containing 5 mM EDTA for 30 mins. at 37° C., washed three times with ice-cold PBS, pH 7.2, and resuspended in RPMI 1640 tissue culture medium (Whittaker M. A. Bioproducts, Walkersville, Md.) at 4° C. Binding of ^125 I-Factor X to neutrophils was measured based on a method described by Altieri et al. (1991) Science 254: 1200-1202. Briefly, 200 μl of neutrophils (1.5×10^7 /ml) were supplemented with 17.5 μl of 50 mM CaCl2, stimulated with 3.5 μl of 100 μM NH2 -formyl-Met-Leu-Phe (Sigma), and mixed with 30 μl of 10.3 μg/ml ^125 I-Factor X and 100 μl of 1.75 mM of peptide. Buffer alone and a peptide of scrambled sequence served as controls in each of the 3 experiments. After incubation for 20 mins. at room temperature, neutrophil-bound ^125 I-Factor X was separated from unbound ^125 I-Factor X by centrifugation of 300 μl aliquots through 50 μl of a mixture of Hi phenyl silicone oil DC 550 and methyl silicone oil DC 200 5:1 (Nye Inc. Specialty Lubricants, New Bedford, Mass.) at 12,000×g for 2 mins. Aliquots of the supernatant (cell free ^125 I-Factor X) and the cell pellet (cell bound ^125 I-Factor X) were counted in a gamma-counter. Nonspecific binding (~50,000 cpm) was determined by adding a 100 fold excess of unlabeled Factor X, and subtracted from total radioactivity (~500,000 cpm for controls).

| Substance | Clotting time (THP-1 cells) [s] | Factor Xa (THP-1 cells; from standard curve) [ng/mL] | % Inhibition of TEM ([1]; native FHA 1 μM, mAbs 25 μg/ml) [%] | % Inhibition of TEM ([1]; native FHA 1 μM, mAbs 25 μg/ml, listed as acetyl/amide modified FHA peptide II) [%] | inhibition of 125I-Factor X binding to neutrophils (Human neutrophils; peptides 0.5 mM, native FHA 0.3 μM, mAb IB4 100 μg/ml) [%] | IC50 (Human neutrophils; read-out: IC50 of inhibition of 125I-Factor X binding) [nM] | % Inhibition of TEM ([1]; FHA 1 μM, mAb IB4 25 μg/ml) [%] | % Inhibition of TEM ([1]; FHA 1 μM, mAb IB4 25 μg/ml, listed as Intact FHA) [%] |
| --- | --- | --- | --- | --- | --- | --- | --- | --- |
| Ac-ETKEVDG-NH2 [Acetyl/Amide-FHA II] | 40.0 ± 3.0 | 28.5 | 61 ± 6 | 61±6 | – | – | – | – |
| Filamentous hemagglutinin [native FHA] | – | – | 82±1 | – | 70±4 | 100 | 82 ± 1 | 82±1 |
